Reference: ChEMBL document CHEMBL1208713, “Coumarins incorporating hydroxy- and chloro-moieties selectively inhibit the transmembrane, tumor-associated carbonic anhydrase isoforms IX and XII over the cytosolic ones I and II” (Bioorg Med Chem Lett, 2010)

Columns and labels:
[1] = biological target: Carbonic anhydrase 1 (Homo sapiens) (UniProt P00915)
Description: Inhibition of human CA1 by CO2 hydration assay

[2] = biological target: Carbonic anhydrase 9 (Homo sapiens) (UniProt Q16790); experiment: Inhibition of human CA9 by CO2 hydration assay
[3] = biological target: Carbonic anhydrase 2 (Homo sapiens) (UniProt P00918)
Description: Inhibition of human CA2 by CO2 hydration assay

[4] = biological target: Carbonic anhydrase 12 (Homo sapiens) (UniProt O43570)
Carbonic anhydrase 12 (Homo sapiens), sequence (O43570 whole entry): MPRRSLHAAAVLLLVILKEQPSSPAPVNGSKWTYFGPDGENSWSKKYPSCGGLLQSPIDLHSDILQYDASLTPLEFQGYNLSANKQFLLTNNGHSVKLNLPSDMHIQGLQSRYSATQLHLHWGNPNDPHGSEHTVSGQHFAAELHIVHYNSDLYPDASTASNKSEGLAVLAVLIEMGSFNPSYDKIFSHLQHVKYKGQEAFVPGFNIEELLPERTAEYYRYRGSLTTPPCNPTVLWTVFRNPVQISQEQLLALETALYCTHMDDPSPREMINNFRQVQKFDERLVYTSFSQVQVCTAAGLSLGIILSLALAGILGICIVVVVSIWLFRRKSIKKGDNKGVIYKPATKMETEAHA
Description: Inhibition of human CA12 by CO2 hydration assay

Carbonic anhydrase 1 (Homo sapiens), sequence (P00915 2-261 limits assumed): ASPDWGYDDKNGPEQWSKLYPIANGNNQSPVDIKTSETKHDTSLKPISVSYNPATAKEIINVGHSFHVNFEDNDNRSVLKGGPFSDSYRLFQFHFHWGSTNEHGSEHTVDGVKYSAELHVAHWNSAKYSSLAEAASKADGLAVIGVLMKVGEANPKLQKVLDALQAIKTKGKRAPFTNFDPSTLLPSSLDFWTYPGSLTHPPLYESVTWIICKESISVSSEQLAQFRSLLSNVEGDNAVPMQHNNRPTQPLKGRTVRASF

O=c1cc(Cl)c2ccccc2o1
Ki [1]: 86.9 µM
Ki [2]: 4.92 µM
Ki [3]: > 100 µM
Ki [4]: 7.03 µM

O=c1cc(O)c2ccccc2o1
Ki [1]: 95 µM
Ki [2]: 0.418 µM
Ki [3]: > 100 µM
Ki [4]: 6.3 µM

O=c1cc(CCl)c2ccc(Cl)cc2o1
Ki [1]: 72.8 µM
Ki [2]: 0.359 µM
Ki [3]: > 100 µM
Ki [4]: 0.735 µM

O=c1ccc2cc(O)ccc2o1
Ki [1]: > 100 µM
Ki [2]: 0.198 µM
Ki [3]: > 100 µM
Ki [4]: 0.683 µM

O=c1ccc2ccccc2o1
Ki [2]: > 100 µM
Ki [4]: > 100 µM

O=c1cc(CCl)c2ccc(O)cc2o1
Ki [1]: > 100 µM
Ki [2]: 0.478 µM
Ki [3]: > 100 µM
Ki [4]: 8.02 µM

O=c1ccc2ccc(O)cc2o1
Ki [1]: 58.4 µM
Ki [2]: 0.482 µM

O=c1oc2ccccc2cc1O
Ki [1]: 79.4 µM
Ki [2]: 0.508 µM
Ki [3]: > 100 µM
Ki [4]: 9.6 µM
